Test results: patent US11096980B2, “Method of using glycyrrhiza plant-based preparation to reduce toxic effect of polypeptide fungitoxin” (priority 2016, dated 2021)

Test system: IPEC-J2 cells
Experiment: TEER cell culture assay: protective effect against polypeptide fungitoxins
Type: cell-based, porcine
Settings: for TEER value after addition of toxin (negative control): toxin 0.2-10 μM added on day 8
Description: In order to test the correlations of polypeptide fungitoxins on epithelial tissue under controlled conditions, in vitro studies were performed. Therein, well-characterized test systems based on cell cultures and described in the literature were employed. For feed additives, epithelial cells from the respective organ in question, e.g. in the present case IPEC-J2 cells from the porcine intestine, were preferred. The used epithelial cells from the porcine intestine offer the advantage of being non-transformed cells still having all the important properties of normal intestinal cells and large physiological similarities such as the formation of viable tight junction proteins, which are above all essential for the intestinal barrier, as well as the expression of characteristic enzymes and transport systems (e.g. P-glycoprotein, cytochrome P450 3A4, vit. B 12 transporters etc.).
For the in vitro examinations of a Glycyrrhiza dry extract, the latter was extracted once again, thus producing a secondary Glycyrrhiza extract. The secondary Glycyrrhiza extract was prepared in that 1 g of the Glycyrrhiza dry extract and 9 ml 70% ethanol was each weighed in, mixed, and shaken at 700 rpm for one hour at room temperature. After this, the solution was centrifuged, and the liquid supernatant was sterile filtered using a 0.2 μm filter and further diluted with IPEC-J2 medium. The secondary Glycyrrhiza extract was tested in vitro in the following concentrations: 250 μg, 500 μg and 1,000 μg Glycyrrhiza dry extract per ml medium in the test formulation, in the following also referred to as 250, 500 and 1,000 μg/ml secondary Glycyrrhiza extract.
The TEER technique described by Geens and Niewold (Cytotechnology, 2011, 63, 415 et seq.) was used in an adapted form. In this in vitro model, intestinal porcine epithelial cells (IPEC-J2, DSMZ No.: ACC 701, Passage 1-15) are cultivated in an insert on a permeable polyester membrane (1.12 cm^2 surface area, 0.4 μm pore size, 12 mm membrane diameter) and differentiated in the incubator for a period of 8 days at 39° C. and 5% CO2. Per insert, 1×10^∧5 cells in 0.5 ml medium are applied to the respective membrane. During said differentiation period, the used medium was aspirated every other day and replaced with fresh medium. The insert was fixed in a 12-well cell culture plate, and the cells were supplied with 1.5 ml medium from below (basolateral compartment) and with 0.5 ml medium from above (apical compartment). […]
Differentiated cells form a cell barrier, being strongly interconnected by tight junction proteins. […] The intactness of the cell barrier is measured by means of a volt-ohmmeter: The electrical resistance between the two compartments is referred to as TEER (transepithelial electrical resistance) value and represented in kOhm×cm^2. […]

How did the “TEER value after addition of toxin (negative control)” value turn out when CCC(=O)CCCCC[C@@H]1NC(=O)[C@H]2CCCCN2C(=O)[C@H]([C@@H](C)CC)NC(=O)[C@H](Cc2cn(OC)c3ccccc23)NC1=O [apicidin] was run?
The value was “lowered”.

CC[C@H](C)[C@H]1C(=O)O[C@H](C(C)C)C(=O)N(C)[C@@H]([C@@H](C)CC)C(=O)O[C@H](C(C)C)C(=O)N(C)[C@@H]([C@@H](C)CC)C(=O)O[C@H](C(C)C)C(=O)N1C [enniatin A] was tested. Which “TEER mean value (toxin)” value (enniatin A 5 μM alone (negative control), after 24 hours) did it give?
Its value is 3.928 kOhm×cm^2.

Which “Effect in the TEER test against enniatins A, A1, B, B1, beauvericin and apicidin relative to the negative controls” value (70 μg/ml (corresponding to 1.000 μg/ml secondary Glycyrrhiza extract)) does the source give for CC1(C)[C@@H](O[C@H]2O[C@H](C(=O)O)[C@@H](O)[C@H](O)[C@H]2O[C@@H]2O[C@H](C(=O)O)[C@@H](O)[C@H](O)[C@H]2O)CC[C@]2(C)[C@H]3C(=O)C=C4[C@@H]5C[C@@](C)(C(=O)O)CC[C@]5(C)CC[C@@]4(C)[C@]3(C)CC[C@@H]12 [glycyrrhizic acid] here?
The value was “no positive effect”.

enniatins was tested. Which “TEER value after addition of toxin (negative control)” value did it give?
Its value is “lowered”.
